Assay results from PMC11314561, “Design and Synthesis of Novel Aminoindazole-pyrrolo[2,3-b]pyridine Inhibitors of IKKα That Selectively Perturb Cellular Non-Canonical NF-κB Signalling” (Molecules, 2024).
pIC50, pKi: −log10 of the molar value.

What was measured:
[1] = target: T1, IKKβ (Homo sapiens, UniProt O14920); experiment: DELFIA kinase assay, IKKβ; type: biochemical; settings: read-out: Ki Values IKKβ
T1 sequence (O14920 1-756): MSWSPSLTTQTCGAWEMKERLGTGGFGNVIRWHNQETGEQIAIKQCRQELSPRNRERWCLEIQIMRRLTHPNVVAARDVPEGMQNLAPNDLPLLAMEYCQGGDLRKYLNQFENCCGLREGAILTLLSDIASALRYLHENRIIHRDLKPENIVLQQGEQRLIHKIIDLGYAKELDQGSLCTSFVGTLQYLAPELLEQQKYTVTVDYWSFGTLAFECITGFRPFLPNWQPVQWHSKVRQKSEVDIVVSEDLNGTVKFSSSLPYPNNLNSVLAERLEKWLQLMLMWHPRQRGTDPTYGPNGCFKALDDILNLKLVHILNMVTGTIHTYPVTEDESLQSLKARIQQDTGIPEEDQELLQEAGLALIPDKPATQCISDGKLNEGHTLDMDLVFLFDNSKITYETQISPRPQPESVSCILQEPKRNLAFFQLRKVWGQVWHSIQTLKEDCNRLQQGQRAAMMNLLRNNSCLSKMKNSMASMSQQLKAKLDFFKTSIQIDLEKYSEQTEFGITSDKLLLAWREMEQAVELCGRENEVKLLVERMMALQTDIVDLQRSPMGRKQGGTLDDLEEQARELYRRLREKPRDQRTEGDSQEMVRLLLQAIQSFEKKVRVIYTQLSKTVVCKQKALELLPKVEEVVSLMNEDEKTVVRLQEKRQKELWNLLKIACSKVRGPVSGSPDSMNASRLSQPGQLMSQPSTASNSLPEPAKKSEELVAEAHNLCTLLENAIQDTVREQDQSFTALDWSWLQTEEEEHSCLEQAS
Procedure: IKKα and IKKβ inhibitory activity were determined using a dissociation-enhanced ligand fluorescent immunoassay (DELFIA) based on the protocol of HTScan™ IKKβ Kinase Assay (Cell Signaling Technology, Danvers, MA, USA) as described in [24].

[2] = system: IKKα-mediated p100 phosphorylation (Ser866/870) in U2OS cells; experiment: FCS-stimulated p100 phosphorylation (Ser866/870), Western blotting; type: cell-based; settings: Homo sapiens, 1 h pre-treatment, FCS 10% 4 h
Procedure: To assess the translation of the biochemical potencies and selectivities described above to a cell-based setting, exemplars from the series were initially examined for inhibitory action against IKKs in the U2OS osteosarcoma cell line. This cell type was utilised to represent cells with a proliferative phenotype dependent on the constitutively activated IKKα-mediated non-canonical NF-κB pathway. Compounds 5r [SU1261]
U2OS cells were cultured in McCoy’s 5A Modified Medium, and PC-3M-Luc-C6 prostate cancer cells were cultured in Minimum Essential Medium (MEM), each containing 10% (v/v) Foetal Calf Serum (FCS), L-glutamine ([…]), and penicillin/streptomycin (250 units/mL; 100 μg/mL) and incubated in a humidified atmosphere at 37 °C with 5% (v/v) CO2. Cells were grown to near confluence and prior to experimentation rendered quiescent by serum deprivation for 24 h.
For examination of potential effects of compound on non-canonical NF-κB signalling, cells were exposed to vehicle (DMSO; 0.03–0.05% (v/v)) or increasing concentrations of compounds (0.01–30 µM) for 1 h prior to treatment with FCS (10% (v/v); for U2OS cells) or LTα1β2 (20 ng/mL; for PC-3M cells) for 4 h. The status of p-p100 (Ser 866/870) in whole-cell extracts prepared from 12-well plates was assessed by Western blotting, as described in McKenzie et al.. […] Thereafter, p52 and RelB status in crude nuclear extracts normalised for protein amounts were assessed by Western blotting.
Each figure/panel of Western blotting data represents one of at least three separate experiments. Western blots were scanned and imaged using Adobe Photoshop 5.0.2 software and polypeptide bands were semi-quantified by scanning densitometry using the Scion Image program. Data were normalised to fold expression/inhibition relative to ‘agonist plus vehicle’ treatment and expressed as mean ± s.e.m. […]

[3] = target: T2, MST2(h) (Homo sapiens, UniProt Q13188); experiment: kinase panel; type: biochemical
T2 sequence (Q13188 1-491): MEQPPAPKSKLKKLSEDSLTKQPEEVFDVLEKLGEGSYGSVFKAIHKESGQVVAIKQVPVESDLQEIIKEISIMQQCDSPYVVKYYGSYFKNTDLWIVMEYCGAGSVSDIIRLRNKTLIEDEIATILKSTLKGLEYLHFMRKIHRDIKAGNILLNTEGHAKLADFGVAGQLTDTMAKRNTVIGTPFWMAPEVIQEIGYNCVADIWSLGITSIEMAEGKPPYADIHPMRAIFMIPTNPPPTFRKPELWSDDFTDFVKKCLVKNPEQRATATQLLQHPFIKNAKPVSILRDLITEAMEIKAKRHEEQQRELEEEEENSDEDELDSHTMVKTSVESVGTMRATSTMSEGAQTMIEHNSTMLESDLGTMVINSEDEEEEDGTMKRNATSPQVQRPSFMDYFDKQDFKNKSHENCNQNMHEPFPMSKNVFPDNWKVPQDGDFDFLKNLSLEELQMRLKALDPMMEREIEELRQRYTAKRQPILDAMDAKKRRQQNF
From the text: We profiled three compounds from the series across the kinome (Table S1).
Ta b l e S1. The % inhibition of compounds 4, 5r [SU1261], and 6g [SU1349] against a
panel of kinase enzymes. We proϐiled three compounds from the series across 231
kinases. For SU1349, given its structural similarity with SU1261, we selected 98 from the
Tested kinase % inhibiƟon

## Nc1n[nH]c2ccc(-c3ccnc4[nH]c(-c5ccccc5)cc34)cc12 [Compound 4]
[1]
  pKi: 7.82
[2]
  pIC50: 6.16
[3]
  inhibition at 1 µM: 5%

## Nc1n[nH]c2ccc(-c3ccnc4[nH]c(-c5cccc(OCc6ccccc6)c5)cc34)cc12 [Compound 5r [SU1261]]
[1]
  pKi: 6.17
[2]
  pIC50: 5.54
[3]
  inhibition at 1 µM: -1%

## Nc1n[nH]c2ccc(-c3ccnc4[nH]c(-c5ccnc(OCc6ccccc6)c5)cc34)cc12 [Compound 6g [SU1349]]
[1]
  pKi: 5.47
[2]
  pIC50: 5.06
[3]
  inhibition at 1 µM: 4%
